Measurements taken from patent publication US12324447B2, “Animal feed compositions and uses thereof” (priority 2015, dated 2025).
Entries after “also recorded” stand apart in the source; their conditions may differ. Like-named read-outs stand apart in the source and are kept apart here. Marks after values point to notes of the source that are not given here.

What was measured:
[1] = In vivo broiler trial (growth performance)
[2] = In vivo piglet trial (growth performance); design: species or system weaned piglets (Large-White x Redon); conditions: for ADFI (g/d), Mean / ADWG (g/d), Mean / FCR, Mean: SEQ ID NO: 257 50 mg/kg feed, VevoVital 5000 mg/kg feed; for ADFI, % relative NC / ADWG, % relative NC / FCR, % relative NC: relative to negative control
[3] = tested on: Clostridium perfringens DSM756; format: cell-based; conditions: for Diameter of clearing zone (mm): lysozymes 100 μg/ml, Bacitracin zinc salt 50 μg/ml; for Diameter of clearing zone (mm), bracketed with *: Incomplete inhibition of growth visible after MTT colouring: lysozyme 100 μg/ml; for Antimicrobial activity against Clostridium perfringens (in words): RDA
[4] = tested on: Exiguobacterium undea (DSM14481); assay: Lysozyme activity turbidity assay (optical density drop at 540 nm); format: biochemical, Exiguobacterium undae; conditions: for Lysozyme activity against Exiguobacterium undea (in words): OD drop assay
[5] = tested on: Micrococcus lysodeikticus ATTC No. 4698; assay: as above; conditions: for Lysozyme activity against Micrococcus lysodeikticus (in words): OD drop assay
[6] = Finisher (d 36-42), SEQ ID NO: 257 25 mg/kg feed, Avilamycin 10 mg/kg
[7] = Finisher (d 36-42), relative to unsupplemented control
[8] = Grower (d 22-36), SEQ ID NO: 257 25 mg/kg feed, Avilamycin 10 mg/kg
[9] = Grower (d 22-36), relative to unsupplemented control
[10] = Starter (d 1-22), SEQ ID NO: 257 25 mg/kg feed, Avilamycin 10 mg/kg
[11] = Starter (d 1-22), relative to unsupplemented control
[12] = Whole period (day 1 to day 42), SEQ ID NO: 257 25 mg/kg feed, Avilamycin 10 mg/kg
[13] = Whole period, relative to unsupplemented control

COC[C@H]1O[C@@H](OC2OC[C@@H]3O[C@]4(O[C@H]3[C@H]2OC(=O)C(C)C)O[C@H](C)[C@@](O)(C(C)=O)[C@@H]2OCO[C@H]24)[C@@H](OC)[C@@H](O)[C@@H]1O[C@@H]1O[C@H](C)[C@H](OC)[C@H](O[C@H]2C[C@@]3(C)OC4(C[C@@H](O)[C@H](O[C@H]5C[C@@H](O)[C@H](OC(=O)c6c(C)c(Cl)c(O)c(Cl)c6OC)[C@@H](C)O5)[C@@H](C)O4)O[C@@H]3[C@@H](C)O2)[C@H]1O (stereo partly drawn) [Avilamycin, reference compound]
FCR [1, 6]: 1.982
Feed intake (g/b) [1, 6]: 1460 g/b
Weight gain (g/b) [1, 6]: 738 g/b
FCR, Relative to C (%) [1, 7]: 101.1%
Feed intake, Relative to C (%) [1, 7]: 98.2%
Weight gain, Relative to C (%) [1, 7]: 97.0%
FCR [1, 8]: 1.683
Feed intake (g/b) [1, 8]: 2242 g/b
Weight gain (g/b) [1, 8]: 1334 g/b
FCR, Relative to C (%) [1, 9]: 97.7%
Feed intake, Relative to C (%) [1, 9]: 98.1%
Weight gain, Relative to C (%) [1, 9]: 100.4%
FCR [1, 10]: 1.452
Feed intake (g/b) [1, 10]: 1593 g/b
Weight gain (g/b) [1, 10]: 1102 g/b
FCR, Relative to C (%) [1, 11]: 100.8%
Feed intake, Relative to C (%) [1, 11]: 101.0%
Weight gain, Relative to C (%) [1, 11]: 100.6%
EPEF [1, 12]: 397
FCR [1, 12]: 1.669
Feed intake (g/b) [1, 12]: 5312 g/b
Motality [1, 12]: 12.5
Weight gain (g/b) [1, 12]: 3184 g/b
EPEF, Relative to C (%) [1, 13]: 95.0%
FCR, Relative to C (%) [1, 13]: 99.3%
Feed intake, Relative to C (%) [1, 13]: 99.3%
Weight gain, Relative to C (%) [1, 13]: 99.9%
EPEF worse by (compared to NC diet) ([1]; whole period, Avilamycin 10 mg/kg): 5.0%
FCR improvement compared to NC diet ([1]; whole period, GH24 lysozyme 25 mg/kg, Avilamycin 10 mg/kg): 0.7%

O=C(O)c1ccccc1 [VevoVital, benzoic acid]
ADFI (g/d), Mean ([2]; day 0-14): 355 g/day
ADWG (g/d), Mean ([2]; day 0-14): 304 g/day
FCR, Mean ([2]; day 0-14): 1.168^a
ADFI, % relative NC ([2]; day 0-14): 98.6%
ADWG, % relative NC ([2]; day 0-14): 104.8%
FCR, % relative NC ([2]; day 0-14): 94.2%
ADFI (g/d), Mean ([2]; day 0-42): 709^ab g/d
ADWG (g/d), Mean ([2]; day 0-42): 526 g/day
FCR, Mean ([2]; day 0-42): 1.342^a
ADFI, % relative NC ([2]; day 0-42): 96.6%
ADWG, % relative NC ([2]; day 0-42): 105.4%
FCR, % relative NC ([2]; day 0-42): 90.4%
ADFI (g/d), Mean ([2]; day 14-42): 886^ab g/d
ADWG (g/d), Mean ([2]; day 14-42): 638 g/day
FCR, Mean ([2]; day 14-42): 1.398^a
ADFI, % relative NC ([2]; day 14-42): 95.3%
ADWG, % relative NC ([2]; day 14-42): 105.8%
FCR, % relative NC ([2]; day 14-42): 90.5%
Improvement on FCR compared to the negative control ([2]; overall period (day 0 to day 42), lysozyme 50 mg/kg, VevoVital 5000 mg/kg): 9.6%
Improvement of ADWG compared to NC ([2]; pre-starter period (days 0-14)): 4.8%
Improvement of ADWG compared to NC ([2]; starter period (days 14-42)): 5.8%
Improvement to FCR compared to NC ([2]; starter period, from day 15 to day 42, SEQ ID NO: 257 50 mg/kg, VevoVital (PC)): 9.5%
Improvement of ADWG compared to NC ([2]; whole period (day 0 to day 42)): 5.4%

Bacitracin zinc salt [reference compound]
Diameter of clearing zone (mm) ([3]; Experiment 1, 1/2 MHB pH 6): 11 mm
Diameter of clearing zone (mm) ([3]; Experiment 1, 1/10 MHB pH 7): 22 mm
Diameter of clearing zone (mm) ([3]; Experiment 2, 1/10 MHB pH 7): 18 mm

B1: SEQ ID NO: 291: mature GH24 lysozyme from Trichophaea minuta (protein, listed as Trichophaea minuta)
chain: YPAKVDLRCRSSPSTSASVVRTYSKGSEIQISCQTTGTSVEGSNVWDKTQHGCYVADYYVKTGHSGIFTTKCGSSSGGGSCKPPPINAATVALIKEFEGFVAKPAPDPIGLPTVGYGHLCKTKGCKEVPYSFPLTQTTATKLLQSDIKTFTSCVSNYVKDSVKLNDNQFGALSSWAFNVGCGNIQTSSLIKRLNAGENPNTVAAQELPKWKYAGGKVLPGLVRRRKAEVALFKKPSSVQAHPPKC
modifications: mat_peptide (1)..(245)
notes: mature GH24 lysozyme from Trichophaea minuta
Lysozyme activity against Exiguobacterium undea (in words) [4]: good activity
Lysozyme Activity against Exiguobacterium undae as measured by Optical Density Drop ([4]; assay pH 6 (Table 14)): ++++
Lysozyme activity against Micrococcus lysodeikticus (in words) [5]: good activity
Lysozyme Activity against Micrococcus lysodeikticus as measured by Optical Density Drop ([5]; assay pH 6 (Table 14)): ++++

B2: SEQ ID NO: 270: mature GH24 catalytic domain from Trichophaea saccata with QCVG-linker (SEQ ID NO: 257 lacking the LED) (protein)
chain: QCVGCKPPPINAATVALIKEFEGFVPKPAPDPIGLPTVGYGHLCKTKGCKEVPYSFPLTQETATKLLQSDIKTFTSCVSNYVKDSVKLNDNQYGALASWAFNVGCGNVQTSSLIKRLNAGENPNTVAAQELPKWKYAGGKVMPGLVRRRNAEVALFKKPSSVQAHPPKC
Diameter of clearing zone (mm) ([3]; Experiment 1, 1/2 MHB pH 6): 0 mm
Diameter of clearing zone (mm), bracketed with *: Incomplete inhibition of growth visible after MTT colouring ([3]; Experiment 1, 1/10 MHB pH 7): (8)* mm
Diameter of clearing zone (mm), bracketed with *: Incomplete inhibition of growth visible after MTT colouring ([3]; Experiment 2, 1/10 MHB pH 7): (5)* mm
Antimicrobial activity against Clostridium perfringens (in words) ([3]; 50% MHB, pH 6): no activity
Lysozyme activity against Micrococcus lysodeikticus (in words) [5]: no lysozyme activity
Lysozyme Activity against Micrococcus lysodeikticus as measured by Optical Density Drop ([5]; assay pH 6): −

B3: SEQ ID NO: 279: mature GH24 lysozyme from Acremonium alcalophilum, mature sequence of SEQ ID NO: 4 of WO 2013/076259; no LED (protein, listed as Acremonium alcalophilum)
chain: QCVGPEVNSASINLIKEFEGWYPDIYVDPAGYPTVGYGHLCSDSSCSDVSYSIPLSEADGENLLRDDITNFQNCITWQTASSVVLNANQYGALVSWAFNVGCGASESSSLIARLNAGEDPNTVAEEELPRWNQGGGQVLPGLVRRRAAEVELHQIPTDVAALPACS
modifications: mat_peptide (1)..(166)
notes: no LED
Diameter of clearing zone (mm) ([3]; Experiment 1, 1/2 MHB pH 6): 0 mm
Diameter of clearing zone (mm) ([3]; Experiment 1, 1/10 MHB pH 7): 0 mm
Diameter of clearing zone (mm) ([3]; Experiment 2, 1/10 MHB pH 7): 0 mm
Antimicrobial activity against Clostridium perfringens (in words) ([3]; tested conditions (1/10 MHB pH 7 and 1/2 MHB pH 6)): do not have any activity; also recorded: did not inhibit growth

B4: SEQ ID NO: 294: mature GH24 lysozyme from Chaetomium sp. ZY287 (protein, listed as Chaetomium sp.)
chain: YKISGSSVNCRSGPGTNYPVKKTYANGDEVTISCQTTGTNVEGNNIWDKTQHGCYVADKYVKTGKDGFVTKKCGSSGGGGGGKTCKAPKSNAATVDLIASFEGFRANIYTDATGHPTVGYGHMCTKSRCAEVKYKIPLSKADGKKLLADDMAKFEKCIKEMLNSKAKLNLNQYGALVSWSFNVGCGAAKGSQLVSRLNKGENPNTVLSNELPKWVHGNGKVLPGLVRRRNAEIALAKKSGSGAALPVKC
modifications: mat_peptide (1)..(249)
notes: mature GH24 lysozyme from Chaetomium sp; ZY287
Lysozyme activity against Exiguobacterium undea (in words) [4]: good activity
Lysozyme Activity against Exiguobacterium undae as measured by Optical Density Drop ([4]; assay pH 7 (Table 14)): +++
Lysozyme activity against Micrococcus lysodeikticus (in words) [5]: good activity
Lysozyme Activity against Micrococcus lysodeikticus as measured by Optical Density Drop ([5]; assay pH 7 (Table 14)): +++

B5: SEQ ID NO: 269: amino acid sequence deduced from SEQ ID NO: 268: GH24 catalytic domain with QCVG-linker and signal peptide; precursor of SEQ ID NO: 270 (protein)
chain: MAKVSTLTIALLTMASQARAQCVGCKPPPINAATVALIKEFEGFVPKPAPDPIGLPTVGYGHLCKTKGCKEVPYSFPLTQETATKLLQSDIKTFTSCVSNYVKDSVKLNDNQYGALASWAFNVGCGNVQTSSLIKRLNAGENPNTVAAQELPKWKYAGGKVMPGLVRRRNAEVALFKKPSSVQAHPPKC
Antimicrobial activity against Clostridium perfringens (in words) ([3]; 1/10 MHB, pH 7): incomplete inhibition of growth
Antimicrobial activity against Clostridium perfringens (in words) ([3]; 50% MHB, pH 6): no inhibition of growth
